Data from patent US20240270762A1, “PENICILLIN-BINDING PROTEIN INHIBITORS” (priority 2021, published 2024).
Values after ≈ are worked out from the molar mass of the structure shown.

How the values were obtained:
K. pneumoniae 848844 = experiment: microbe, parasite or virus in culture; type: cell-based; conditions: Klebsiella pneumoniae, 848844, read-out: MIC K. pneumoniae 848844
E. coli AG100A = experiment: Broth microdilution MIC in CAMHB; type: cell-based; conditions: Escherichia coli, read-out: MIC E. coli AG100A
[1] = target: T1, PBP3 from Escherichia coli (K-12) (Escherichia coli, UniProt P0AD68); experiment: Bocillin-FL fluorescence polarization competition binding, E. coli PBP3
T1 construct: made in house
T1 sequence (P0AD68 1-577): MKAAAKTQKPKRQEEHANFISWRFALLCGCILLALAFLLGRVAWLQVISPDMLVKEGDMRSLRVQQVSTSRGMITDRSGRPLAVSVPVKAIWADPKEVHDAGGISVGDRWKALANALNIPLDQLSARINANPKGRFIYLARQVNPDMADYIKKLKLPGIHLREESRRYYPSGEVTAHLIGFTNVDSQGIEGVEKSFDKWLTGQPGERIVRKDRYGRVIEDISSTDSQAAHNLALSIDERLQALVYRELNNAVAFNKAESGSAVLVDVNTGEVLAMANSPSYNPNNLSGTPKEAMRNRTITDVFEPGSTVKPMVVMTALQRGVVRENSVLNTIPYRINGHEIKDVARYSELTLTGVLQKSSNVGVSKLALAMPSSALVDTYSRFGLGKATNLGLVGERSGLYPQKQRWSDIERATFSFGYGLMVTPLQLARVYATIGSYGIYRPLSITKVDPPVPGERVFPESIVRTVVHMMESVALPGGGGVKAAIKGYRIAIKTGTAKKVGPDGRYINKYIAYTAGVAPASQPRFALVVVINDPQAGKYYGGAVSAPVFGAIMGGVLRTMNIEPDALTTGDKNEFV
Procedure, shortened: (§1)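 Purified PBP was preincubated with inhibitor (E. coli PBP3 1.5 μM, 30 min; P. aeruginosa PBP3 0.75 μM, A. baumannii PBP3 0.2 μM and PBP1a 1 μM, 15 min), then Bocillin-FL (0.1 μM; 0.05 μM for PBP1a) added and FP read up to 60 min. EC50 = 50% loss of bound probe.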

N. gonorrhoeae MS11 = experiment: Liquid broth MIC in Fastidious broth; conditions: Neisseria gonorrhoeae, MS11, read-out: Minimum Inhibitory Concentration (MIC), N. gonorrhoeae MS11
N. gonorrhoeae FA1090 = experiment: Liquid broth MIC in Fastidious broth; conditions: Neisseria gonorrhoeae, FA1090, read-out: Minimum Inhibitory Concentration (MIC), N. gonorrhoeae FA 1090
Method: Additional antibacterial testing of the series was performed in 8 reference strains of N. gonorrhoeae (ATCC 49226, FA1090, MS 11, WHO G, WHO L, WHO M, WHO K, WHO X, WHO Z, WHO Q, CDC-0197). ATCC 49226, FA1090, MS11, WHO G, WHO L, and WHO M produce wild type or wild-type like PBP2. WHO K, WHO X, WHO Z, WHO Q, and CDC-0197 produce mosaic PBP2. Liquid broth-based assays were used for antibacterial testing of PBP inhibitors in Neisseria gonorrhoeae. Briefly, cryo-preserved bacterial cultures of clinical strains were streaked for isolation on Chocolate Agar (72 g/L (2×) GC Agar Base (BD #228950) and 2% (2×) Hemoglobin was autoclaved at 121° C. for 20 minutes to sterilize. Once cooled to ˜50° C. the 2×GC Agar Base and 2× Hemoglobin solutions are combined and 1% IsoVitaleX Enrichment (BD #211876) was added to the solution). Strains were incubated at 36° C. and 5% CO2 to allow growth of colonies, 24 hours before inoculum preparation. 2-fold serial dilutions of test compounds were conducted in a 96 well plate with a final volume of 75 μL per well at 2-fold the final desired concentration in Fastidious broth (Remel #R07664). For preparation of assay inoculum, a direct suspension was prepared by aseptically swabbing 10-15 colonies from agar plates into culture tubes containing 2 mL of fresh sterile saline. After the dilution plates were set up, direct suspensions were then diluted in a cuvette containing sterile saline and the optical density was measured at 600 nm. Inocula were diluted such that 75 μL of this culture in Fastidious broth results in a starting bacterial concentration of 5×10^5 CFU/mL when added to the dilution plates. The plates were incubated for ˜24 hours at 36° C. and 5% CO2.

N. gonorrhoeae WHO M = experiment: Liquid broth MIC in Fastidious broth; conditions: Neisseria gonorrhoeae, read-out: Minimum Inhibitory Concentration (MIC), N. gonorrhoeae WHO M
N. gonorrhoeae WHO Z = experiment: Liquid broth MIC in Fastidious broth; conditions: Neisseria gonorrhoeae, read-out: Minimum Inhibitory Concentration (MIC), N. gonorrhoeae WHO Z
K. pneumoniae UMM = experiment: microbe, parasite or virus in culture; type: cell-based; conditions: Klebsiella pneumoniae, read-out: MIC K. pneumoniae UMM
[2] = target: T2, PBP3 from Pseudomonas aeruginosa (PAO1) (Pseudomonas aeruginosa, UniProt G3XD46); experiment: Bocillin-FL fluorescence polarization competition binding, P. aeruginosa PBP3; conditions: Binding affinity to P. aeruginosa PBP3; fluorescence polarization competition binding assay using Bocillin-FL; read-out: P. aeruginosa PBP3 Potency
T2 construct: made in house
T2 sequence (G3XD46 whole entry): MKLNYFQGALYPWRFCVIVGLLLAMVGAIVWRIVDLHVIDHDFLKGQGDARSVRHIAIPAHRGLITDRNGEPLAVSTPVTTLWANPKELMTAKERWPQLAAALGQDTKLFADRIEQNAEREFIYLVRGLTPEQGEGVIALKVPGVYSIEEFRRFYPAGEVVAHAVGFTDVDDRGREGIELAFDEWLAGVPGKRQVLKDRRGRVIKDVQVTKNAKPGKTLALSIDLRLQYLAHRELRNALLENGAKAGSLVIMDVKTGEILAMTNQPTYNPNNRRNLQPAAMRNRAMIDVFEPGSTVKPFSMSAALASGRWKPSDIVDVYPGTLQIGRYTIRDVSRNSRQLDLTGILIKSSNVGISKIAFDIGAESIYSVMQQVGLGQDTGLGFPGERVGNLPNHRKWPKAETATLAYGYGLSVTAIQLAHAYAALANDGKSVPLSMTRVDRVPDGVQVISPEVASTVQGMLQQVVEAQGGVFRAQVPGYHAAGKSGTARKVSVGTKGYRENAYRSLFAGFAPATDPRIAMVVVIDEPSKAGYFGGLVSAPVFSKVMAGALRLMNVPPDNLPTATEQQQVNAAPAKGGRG
Procedure, shortened: as §1

[3] = tested on: N. gonorrhoeae ATCC 49226; experiment: Liquid broth MIC in Fastidious broth; conditions: Neisseria gonorrhoeae, ATCC49226, read-out: Minimum Inhibitory Concentration (MIC), N. gonorrhoeae ATCC 49226
P. aeruginosa ATCC 27853 = experiment: microbe, parasite or virus in culture; type: cell-based; conditions: Pseudomonas aeruginosa, ATCC27853, read-out: MIC P. aeruginosa ATCC 27853
E. coli D22 = experiment: microbe, parasite or virus in culture; type: cell-based; conditions: Escherichia coli, D22, read-out: MIC E. coli D22
E. coli AG100 = experiment: microbe, parasite or virus in culture; type: cell-based; conditions: Escherichia coli, AG100, read-out: MIC E. coli AG100

SMILES	MIC (K. pneumoniae 848844)	MIC (E. coli AG100A)	EC50 [1]	MIC (N. gonorrhoeae MS11)	MIC (N. gonorrhoeae FA1090)	MIC (N. gonorrhoeae WHO M)	MIC (N. gonorrhoeae WHO Z)	MIC (K. pneumoniae UMM)	IC50 [2]	MIC [3]	MIC (P. aeruginosa ATCC 27853)	MIC (E. coli D22)	MIC (E. coli AG100)
O=C(NC(C(=O)N[C@H]1Cc2cccc(C(=O)O)c2OB1O)c1ccc(P(=O)(O)O)cc1)c1ccccn1 (stereo partly drawn) [Example 32, (3R)-2-hydroxy-3-(2-(4-phosphonophenyl)-2-(picolinamido)acetamido)-3,4-dihydro-2H-benzo[e][1,2]oxaborinine-8-carboxylic acid]	> 128 µg/mL	32 to 64 µg/mL (≈ 60.9 to 122 µM)	10 to 50 µM	1 to 2 µg/mL (≈ 1.9 to 3.81 µM)	< 1 µg/mL	< 1 µg/mL	1 to 2 µg/mL (≈ 1.9 to 3.81 µM)	> 128 µg/mL	< 10 µM	1 to 2 µg/mL (≈ 1.9 to 3.81 µM)	> 128 µg/mL	8 to 16 µg/mL (≈ 15.2 to 30.5 µM)	> 128 µg/mL
CS(=O)(=O)N1CCN(C(=O)N[C@@H](C(=O)N[C@H]2Cc3ccc(F)c(C(=O)O)c3OB2O)c2ccc(P(=O)(O)O)c(F)c2F)C1=O [Example 16, (R)-3-((R)-2-(2,3-difluoro-4-phosphonophenyl)-2-(3-(methylsulfonyl)-2-oxoimidazolidine-1-carboxamido)acetamido)-7-fluoro-2-hydroxy-3,4-dihydro-2H-benzo[e][1,2]oxaborinine-8-carboxylic acid]	> 128 µg/mL	32 to 64 µg/mL (≈ 48.2 to 96.3 µM)	< 10 µM	< 1 µg/mL	< 1 µg/mL	< 1 µg/mL	< 1 µg/mL	> 128 µg/mL	< 10 µM	< 1 µg/mL	> 128 µg/mL	8 to 16 µg/mL (≈ 12 to 24.1 µM)	> 128 µg/mL
CCC(=O)NC(C(=O)N[C@H]1Cc2cccc(C(=O)O)c2OB1O)c1ccc(P(=O)(O)O)cc1 (stereo partly drawn) [Example 27, (3R)-2-hydroxy-3-(2-(4-phosphonophenyl)-2-propionamidoacetamido)-3,4-dihydro-2H-benzo[e][1,2]oxaborinine-8-carboxylic acid]	> 128 µg/mL	> 128 µg/mL	50 to 250 µM	16 to 32 µg/mL (≈ 33.6 to 67.2 µM)	4 to 8 µg/mL (≈ 8.4 to 16.8 µM)	4 to 8 µg/mL (≈ 8.4 to 16.8 µM)	16 to 32 µg/mL (≈ 33.6 to 67.2 µM)	> 128 µg/mL	10 to 50 µM	16 to 32 µg/mL (≈ 33.6 to 67.2 µM)	> 128 µg/mL	32 to 64 µg/mL (≈ 67.2 to 134 µM)	> 128 µg/mL
CCN1CCN(C(=O)NC(C(=O)N[C@H]2Cc3cccc(C(=O)O)c3OB2O)c2ccc(P(=O)(O)O)c(O)c2)C(=O)C1=O (stereo partly drawn) [Example 21, (3R)-3-(2-(4-ethyl-2,3-dioxopiperazine-1-carboxamido)-2-(3-hydroxy-4-phosphonophenyl)acetamido)-2-hydroxy-3,4-dihydro-2H-benzo[e][1,2]oxaborinine-8-carboxylic acid]	> 128 µg/mL	8 to 16 µg/mL (≈ 13.2 to 26.5 µM)	< 10 µM	< 1 µg/mL	< 1 µg/mL	< 1 µg/mL	< 1 µg/mL	8 to 16 µg/mL (≈ 13.2 to 26.5 µM)	< 10 µM	< 1 µg/mL	8 to 16 µg/mL (≈ 13.2 to 26.5 µM)	2 to 4 µg/mL (≈ 3.31 to 6.62 µM)	8 to 16 µg/mL (≈ 13.2 to 26.5 µM)
CCN1CCN(C(=O)N[C@H](C(=O)N[C@H]2Cc3ccc(F)c(C(=O)O)c3OB2O)c2ccc(P(=O)(O)O)cc2)C(=O)C1=O (single isomer, unassigned) [Example 9]	> 128 µg/mL	> 128 µg/mL	50 to 250 µM	1 to 2 µg/mL (≈ 1.65 to 3.3 µM)	< 1 µg/mL	< 1 µg/mL	< 1 µg/mL	> 128 µg/mL	10 to 50 µM	1 to 2 µg/mL (≈ 1.65 to 3.3 µM)	> 128 µg/mL	32 to 64 µg/mL (≈ 52.8 to 106 µM)	> 128 µg/mL
Cn1cccc(C(=O)N[C@H](C(=O)N[C@H]2Cc3cccc(C(=O)O)c3OB2O)c2ccc(P(=O)(O)O)cc2)c1=O (single isomer, unassigned) [Example 181]	> 128 µg/mL	> 128 µg/mL	50 to 250 µM	4 to 8 µg/mL (≈ 7.2 to 14.4 µM)	1 to 2 µg/mL (≈ 1.8 to 3.6 µM)	16 to 32 µg/mL (≈ 28.8 to 57.6 µM)	16 to 32 µg/mL (≈ 28.8 to 57.6 µM)	> 128 µg/mL	50 to 250 µM	16 to 32 µg/mL (≈ 28.8 to 57.6 µM)	> 128 µg/mL	> 128 µg/mL	> 128 µg/mL
O=C(O)c1cccc2c1OB(O)[C@@H](NC(=O)C(NC(=O)C1CCCCC1)c1ccc(P(=O)(O)O)cc1)C2 (stereo partly drawn) [Example 31, (3R)-3-(2-(cyclohexanecarboxamido)-2-(4-phosphonophenyl)acetamido)-2-hydroxy-3,4-dihydro-2H-benzo[e][1,2]oxaborinine-8-carboxylic acid]	> 128 µg/mL	> 128 µg/mL	50 to 250 µM	16 to 32 µg/mL (≈ 30.2 to 60.3 µM)	4 to 8 µg/mL (≈ 7.54 to 15.1 µM)	4 to 8 µg/mL (≈ 7.54 to 15.1 µM)	16 to 32 µg/mL (≈ 30.2 to 60.3 µM)	> 128 µg/mL	10 to 50 µM	16 to 32 µg/mL (≈ 30.2 to 60.3 µM)	> 128 µg/mL	32 to 64 µg/mL (≈ 60.3 to 121 µM)	> 128 µg/mL
CN1CCC[C@@H]1C(=O)N[C@@H](C(=O)N[C@H]1Cc2cccc(C(=O)O)c2OB1O)c1ccc(P(=O)(O)O)cc1 (racemic) [Example 54, (R)-2-hydroxy-3-((S)-2-((R)-1-methylpyrrolidine-2-carboxamido)-2-(4-phosphonophenyl)acetamido)-3,4-dihydro-2H-benzo[e][1,2]oxaborinine-8-carboxylic acid and (R)-2-hydroxy-3-((R)-2-((R)-1-methylpyrrolidine-2-carboxamido)-2-(4-phosphonophenyl)acetamido)-3,4-dihydro-2H-benzo[e][1,2]oxaborinine-8-carboxylic acid]	> 128 µg/mL	> 128 µg/mL	50 to 250 µM	16 to 32 µg/mL (≈ 30.1 to 60.2 µM)	4 to 8 µg/mL (≈ 7.53 to 15.1 µM)	4 to 8 µg/mL (≈ 7.53 to 15.1 µM)	16 to 32 µg/mL (≈ 30.1 to 60.2 µM)	> 128 µg/mL	50 to 250 µM	16 to 32 µg/mL (≈ 30.1 to 60.2 µM)	> 128 µg/mL	> 128 µg/mL	> 128 µg/mL
O=C(O)c1cccc2c1OB(O)[C@@H](NC(=O)C(NC(=O)c1ccc[nH]c1=O)c1ccc(P(=O)(O)O)cc1)C2 (stereo partly drawn) [Example 174, (3R)-2-hydroxy-3-(2-(2-oxo-1,2-dihydropyridine-3-carboxamido)-2-(4-phosphonophenyl)acetamido)-3,4-dihydro-2H-benzo[e][1,2]oxaborinine-8-carboxylic acid]	> 128 µg/mL	> 128 µg/mL	50 to 250 µM	4 to 8 µg/mL (≈ 7.39 to 14.8 µM)	1 to 2 µg/mL (≈ 1.85 to 3.7 µM)	1 to 2 µg/mL (≈ 1.85 to 3.7 µM)	16 to 32 µg/mL (≈ 29.6 to 59.1 µM)	> 128 µg/mL	10 to 50 µM	4 to 8 µg/mL (≈ 7.39 to 14.8 µM)	> 128 µg/mL	32 to 64 µg/mL (≈ 59.1 to 118 µM)	> 128 µg/mL
